The structures appear in SMILES notation.

A short description of data set [1]: Half life in mouse liver microsomes at 3 uM measured up to 60 mins. The settings on record: for half-life at 3 µM: liver microsomes. The format is ADME, Microsome. Background: Microsomes from liver hold many membrane-bound enzymes, among them those of drug oxidation.
The nature of data set [2]: Intrinsic clearance in mouse liver microsomes assessed as per mg of protein at 3 uM measured up to 60 mins. The settings on record: for microsomal CLint at 3 µM: liver microsomes. It counts as ADME, Microsome.

As a reminder, the half-life is how long it takes for the measured level to halve. Lower therefore signals rapid decline. On to `O=C(Nc1ccccc1Cl)c1cnc2ccc(C3CCNCC3)cn12.O=C(O)C(=O)O`, for which the half-life at 3 µM in data set [1] worked out at 348 min. Usually microsomal CLint stands for the rate of metabolic loss divided by the concentration. Compound `O=C(Nc1ccccc1Cl)c1cnn2ccc(-c3ccccc3)cc12` came in with a half-life at 3 µM in data set [1] of 27 min. Besides, in data set [2], the intrinsic clearance (microsomal CLint) at 3 µM worked out at 51 µL/min/mg. In the same order, the values of `O=C(Nc1ccccc1Cl)c1cnn2ccc(N3CCCCC3)cc12` are 8.3 min and 167 µL/min/mg. In the same order, the values of `O=C(Nc1ccccc1Cl)c1cnc2ccccn12` are 3.8 min and 361 µL/min/mg.

For the compound `O=C(Nc1ccccc1Cl)c1cnc2ccc(-c3ccccc3)cn12`, in data set [1], the half-life at 3 µM was 53 min. In addition, the microsomal CLint at 3 µM in data set [2] was determined as 26 µL/min/mg.

`O=C(Nc1ccccc1Cl)c1cnn2ccccc12`: the t1/2 in data set [1] (microsomes, 1 h, 3 µM) is reported as 5.3 min. Further, in data set [2] (microsomes, 1 h, 3 µM), the CL was found to be 261 µL/min/mg. Take `O=C(Nc1ccccc1Cl)c1cnc2ccc(N3CCCCC3)cn12`: the half-life at 3 µM in data set [1] was 20 min. Further, the microsomal CLint at 3 µM in data set [2] stood at 71 µL/min/mg.

For the origin of these results see ChEMBL document CHEMBL1154316, “Structure-activity relationship study of EphB3 receptor tyrosine kinase inhibitors” (Bioorg Med Chem Lett, 2009).
